# According to US7217688B2, “Methods and compositions for derepression of IAP-inhibited caspase” (The Burnham Institute, priority 2005, dated 2007):
# Square brackets hold non-standard residues; d marks the D form. Ends that are not written are not given here. * marks the point of attachment. Phe(4-Cl) = N[C@@H](Cc1ccc(Cl)cc1)C(=O)O; dPhe(4-Cl) = N[C@H](Cc1ccc(Cl)cc1)C(=O)O; dPhe(4-F) = N[C@H](Cc1ccc(F)cc1)C(=O)O; 2Nal = N[C@@H](Cc1ccc2ccccc2c1)C(=O)O; d2Nal = N[C@H](Cc1ccc2ccccc2c1)C(=O)O; Fmoc = O=C(OCC1c2ccccc2-c2ccccc21)*; 2Thi = N[C@@H](Cc1cccs1)C(=O)O; Cha = N[C@@H](CC1CCCCC1)C(=O)O
# Experiments:
# [1] = biological target: T1, XIAP-inhibited caspase-3 (Homo sapiens, UniProt P98170); assay: caspase derepression assay (XIAP-inhibited caspase-3, Ac-DEVD-AFC hydrolysis); type: biochemical; settings: for Activity: Table XIV, XIAP derepression assay; for LC (lowest concentration with a ratio of 2 or higher in the derepression assay): tested at 0.4, 2, 10 and 50 micrograms per milliliter; for reversing XIAP-mediated suppression of caspase 3: 50 μg/ml, full length XIAP
# T1 construct: in the derepression assay using full length XIAP; made in house; host or cells: bacteria
# Procedure: Caspase activity was assayed by release of 7-amino-4-trifluoromethyl-coumarin (AFC) from Ac-DEVD-AFC synthetic peptide using a Molecular Devices Spectromax 340 (see Zhou et al., J. Biol. Chem. 272:7797–7800 (1997)). […] The ratio of Vmax for hydrolysis of Ac-DEVD-AFC in the presence and absence of the candidate mixture was calculated and used to identify those that contain an agent that derepresses an IAP-inhibited caspase.
# Screening of each mixture from the DCR390, TPI 1239 or TPI 1328 library, respectively, using the above described assay was carried out as follows. Each mixture was aliquoted in a 25 microliter volume and in duplicate to a well of a 96 well microtiter plate. […] Fluorescence of liberated AFC was immediately detected from each well for 30 minutes at 30 second intervals. The Vmax for hydrolysis of AC-DEVD-AFC from each well was measured using the softmax software package. Results of the screen for the DCR390 library are shown in Table I. Sets of mixtures having the same position fixed with different respective amino acids are arranged in 6 sections identified with the position number. […] The mixture in each section are arranged in descending order according to apparent velocity in the second column.
# Briefly, recombinant proteins were produced in bacteria and purified as described, for example, in Deveraux et al., Nature 388:300–304(1997). […] Generation of fluorogenic AFC (7-amino-4-trifluoromethyl coumarin) product was measured with a spectrofluorometric plate reader in kinetic mode for 30 minutes at 37° C. using excitation and emission wavelengths of 405 nm and 510 nm, respectively. […] Control reactions lacked XIAP, and all assays were conducted in the linear range of substrate hydrolysis to avoid substrate depletion artifacts.
# [2] = test system: Jurkat leukemia cells; assay: Jurkat cell death (Annexin V / propidium iodide flow cytometry); type: cell-based; settings: for ability to induce apoptosis in Jurkat cells: micromolar concentrations, compared to DMSO control
# Procedure: The following assay was used to test the ability of individual compounds from the TPI 1396 and TPI 1391 libraries to induce apoptosis of cultured tumor cell lines. Each of the compounds listed in Table IX was individually added to Jurkat leukemia cells (6.25×10^5 cells/mL) in RPMI containing 2.5% FBS at various concentrations for 20 hours. After incubation, cells were washed and stained with FITC-conjugated Annexin V antibody and propidium iodide (Biovision; Mountain View, Calif.). Cells were incubated for 20 minutes at room temperature in the dark and fluorescence was measured by flow cytometry (FACScan, Immunocytometry system; Becton-Dickinson; San Jose, Calif.). Cells staining positive for Annexin V were deemed non-viable.
# [3] = test system: NCI panel of 60 tumor cell lines; assay: NCI panel of 60 tumor cell lines, protein-based colorimetric assay; parameters: species or system human; settings: 48 hours
# Procedure: Selected polyphenylurea compounds were tested on the National Cancer Institute (NCI) panel of 60 tumor cell lines (see FIG. 28a and FIG. 29).
# [4] = biological target: full length XIAP (Homo sapiens, UniProt P98170); assay: potency of IAP antagonists at restoring caspase-3 activity / SMAC competition assay (Table VIII)
# [5] = Table XI, different functionalities at R2
# T1 sequence (P98170 whole entry): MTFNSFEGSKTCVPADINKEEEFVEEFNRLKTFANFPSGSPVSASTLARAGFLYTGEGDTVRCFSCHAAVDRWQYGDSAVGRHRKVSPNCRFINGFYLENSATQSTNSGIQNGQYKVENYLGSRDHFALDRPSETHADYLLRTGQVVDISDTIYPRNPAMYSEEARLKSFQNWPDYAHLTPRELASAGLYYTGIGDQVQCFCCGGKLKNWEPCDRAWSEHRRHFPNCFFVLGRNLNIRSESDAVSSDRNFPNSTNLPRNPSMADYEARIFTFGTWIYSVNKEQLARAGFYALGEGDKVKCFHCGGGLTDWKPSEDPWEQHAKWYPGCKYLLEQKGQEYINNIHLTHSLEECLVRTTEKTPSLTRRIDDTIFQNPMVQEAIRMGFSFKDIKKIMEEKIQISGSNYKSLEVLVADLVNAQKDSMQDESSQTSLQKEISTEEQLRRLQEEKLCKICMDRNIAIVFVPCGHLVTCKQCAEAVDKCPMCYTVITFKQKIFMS
# full length XIAP, sequence (P98170 whole entry): as above
molecule,measurement,setting,value
COc1ccc(CCN2CCC[C@H]2CN(C(=O)Nc2ccc(C)cc2)[C@@H](CNC(=O)Nc2ccc(C)cc2)CC2CCCCC2)cc1 [TPI 1572-21],Activity,[1],69 µM
COc1ccc(CCN2C[C@@H](O)C[C@@H]2CN(C)[C@@H](CNC(=O)Nc2ccccc2)CC2CCCCC2)cc1 [TPI 1567-24],Activity,[1],122 µM
CCNC(=O)NC[C@@H](CC1CCCCC1)N(C[C@@H]1CCCN1CCc1ccc(OC)cc1)C(=O)NCC [TPI 1572-20],Activity,[1],235 µM
(L-ThiAla)-(D-pClPhe)-(L-pClPhe)-(Lys-εFmoc) ([2Thi][dPhe(4-Cl)][Phe(4-Cl)]K(Fmoc)) [TPI 792-27],LC (lowest concentration with a ratio of 2 or higher in the derepression assay),[1],2 µg/mL
COc1ccc(CCN2CCC[C@@H]2CN(C)[C@@H](CNC(=O)Nc2ccc(C)cc2)CC2CCCCC2)cc1 [TPI 1567-11],Activity,[1],75 µM
same,ability to induce apoptosis in Jurkat cells,[2],capable of inducing apoptosis
CN(C[C@H]1CCCN1CCc1ccccc1)[C@@H](CNC(=O)Nc1ccccc1)CC1CCCCC1 [TPI 1577-6],Activity,[1],113 µM
(L-Cha)-(D-Na1)-(L-Trp)-(L-ThiAla) ([Cha][d2Nal]W[2Thi]) [TPI 1332-41],reversing XIAP-mediated suppression of caspase 3,[1],Active
COc1ccc(CCN2CCC[C@@H]2CN(C)[C@@H](CNC(=O)Nc2ccccc2)CC(C)C)cc1 [TPI 1577-3],Activity,[1],>241 µM
COc1ccc(CCN2CCC[C@H]2CN(C(=O)Nc2ccc([N+](=O)[O-])cc2)[C@@H](CNC(=O)Nc2ccc([N+](=O)[O-])cc2)CC2CCCCC2)cc1 [TPI 1572-23],Activity,[1],94 µM
COc1ccc(CCN2CCC[C@@H]2CN(C)[C@H](C)CNC(=O)Nc2ccccc2)cc1 [TPI 1577-1],Activity,[1],252 µM
COc1ccc(CCN2CCC[C@H]2CN(C(=O)Nc2ccc(F)cc2)[C@@H](CNC(=O)Nc2ccc(F)cc2)CC2CCCCC2)cc1 [TPI 1572-22],Activity,[1],79 µM
COc1ccc(CCN2CCC[C@@H]2CN(C)CCNC(=O)Nc2ccccc2)cc1 [TPI 1577-2],Activity,[1],157 µM
COc1ccc(CCN2CCC[C@@H]2CN(C)[C@@H](CNC(=O)Nc2ccc(F)cc2)CC2CCCCC2)cc1 [TPI 1567-12],Activity,[1],124 µM
same,ability to induce apoptosis in Jurkat cells,[2],capable of inducing apoptosis
COc1ccc(CCN2CCC[C@@H]2CN(C)[C@@H](CNC(=O)Nc2ccc(I)cc2)CC2CCCCC2)cc1 [TPI 1567-13],Activity,[1],58 µM
same,ability to induce apoptosis in Jurkat cells,[2],capable of inducing apoptosis
(L-Ala)-(L-Trp)-(L-Trp)-(L-ThiAla) (AWW[2Thi]) [TPI 1332-1],reversing XIAP-mediated suppression of caspase 3,[1],Active
(D-Nal)-(L-Nal)-(L-pClPhe)-(Lys-εFmoc) ([d2Nal][2Nal][Phe(4-Cl)]K(Fmoc)) [TPI 792-15],LC (lowest concentration with a ratio of 2 or higher in the derepression assay),[1],2 µg/mL
COc1ccc(CCN(CCCC[C@@H](CN(C(=O)Nc2ccccc2)[C@@H](CNC(=O)Nc2ccccc2)CC2CCCCC2)N(C)C(=O)Nc2ccccc2)C(=O)Nc2ccccc2)cc1 [TPI 1396-25],"Activity (relative caspase-3 activity, ratio of Vmax with compound to Vmax of caspase-3 and XIAP controls)",[1]; [5],1.6
COc1ccc(CCN2CCC[C@H]2CN(C)[C@@H](CNC(=O)Nc2ccccc2)CC2CCCCC2)cc1 [TPI 1572-14],Activity,[1],103 µM
COc1ccc(CCN2C[C@@H](O)C[C@@H]2CN(C(=O)Nc2ccccc2)[C@@H](CNC(=O)Nc2ccccc2)CC2CCCCC2)cc1 [TPI 1567-23],Activity,[1],35 µM
CN(CCCCC(CNC(=O)Nc1ccccc1)N(CC1CCCN1CCC12CC3CC(CC(C3)C1)C2)C(=O)Nc1ccccc1)C(=O)Nc1ccccc1 (stereo not shown) [TPI 1396-11],average LD50 for the 60 cell lines,[3],10 ± 2.8 µM
same,median LD50 for the 60 cell lines,[3],17 µM
same,"Activity (relative caspase-3 activity, ratio of Vmax with compound to Vmax of caspase-3 and XIAP controls)","[1]; Table X, R2 = L-Proline",2.6
same,activity in the derepression assay using full length XIAP,[1]; active / inactive,active
same,% nonviable cells,[2]; 1 µM,14%
same,% nonviable cells,[2]; 10 μM,90%
same,% nonviable cells,[2]; 25 µM,90%
same,% nonviable cells,[2]; 50 µM,90%
(D-Nal)-(Lys-εFmoc)-(L-pClPhe)-(Lys-εFmoc) ([d2Nal]K(Fmoc)[Phe(4-Cl)]K(Fmoc)) [TPI 792-3],LC (lowest concentration with a ratio of 2 or higher in the derepression assay),[1],2 µg/mL
Cc1ccc(CCN2CCC[C@@H]2CN(C)[C@@H](CNC(=O)Nc2ccccc2)CC2CCCCC2)cc1 [TPI 1577-8],Activity,[1],88 µM
COc1ccc(CCN2CCC[C@H]2CN(C(C)=O)[C@@H](CNC(C)=O)CC2CCCCC2)cc1 [TPI 1572-19],Activity,[1],>219 µM
CCN1CCC[C@@H]1CN(C)[C@@H](CNC(=O)Nc1ccccc1)CC1CCCCC1 [TPI 1567-5],Activity,[1],209 µM
(L-ThiAla)-(Lys-εFmoc)-(D-Nal)-(Lys-εFmoc) ([2Thi]K(Fmoc)[d2Nal]K(Fmoc)) [TPI 792-19],LC (lowest concentration with a ratio of 2 or higher in the derepression assay),[1],2 µg/mL
COc1ccc(CCN2CCC[C@H]2CN(CCNC(=O)Nc2ccccc2)C(=O)Nc2ccccc2)cc1 [TPI 1572-15],Activity,[1],171 µM
CNC[C@@H](CC1CCCCC1)N(C[C@@H]1CCCN1CCc1ccc(OC)cc1)C(=O)Nc1ccccc1 [TPI 1572-17],Activity,[1],132 µM
COc1ccc(CCN2CCC[C@@H]2CN(C)[C@@H](CNC(=O)Nc2ccc3ccccc3c2)CC2CCCCC2)cc1 [TPI 1577-9],Activity,[1],23 µM
same,ability to induce apoptosis in Jurkat cells,[2],capable of inducing apoptosis
COc1ccc(CCN2CCC[C@H]2CN(C(=O)c2ccccc2)[C@@H](CNC(=O)c2ccccc2)CC2CCCCC2)cc1 [TPI 1572-18],Activity,[1],164 µM
CCCCCCCN1C(=O)C(=O)N(C(CCCC)CNCc2ccccc2)CC1Cc1ccc2ccccc2c1 (stereo not shown) [TPI 1391-21],EC50,[4]; amount of compound necessary to restore caspase-3 activity to 50% of Vmax,33.6 µM
same,Relative Potency,[4]; fold relative to SMAC AVPI tetrapeptide,3.7
same,% nonviable cells,"[2]; 1 μM, 20 hours",16%
same,% nonviable cells,"[2]; 5 μM (first column headed 5), 20 hours",11%
same,% nonviable cells,"[2]; 5 μM (second column headed 5), 20 hours",18%
same,% nonviable cells,"[2]; 10 μM, 20 hours",44%
same,% nonviable cells,"[2]; 25 μM, 20 hours",91%
same,% nonviable cells,"[2]; 50 μM, 20 hours",94%
COc1ccc(CCN2CCC[C@H]2CNC(=O)Nc2ccccc2)cc1 [TPI 1572-8],Activity,[1],>283 µM
COc1ccc(CCN(C(=O)Nc2ccccc2)[C@H](Cc2ccccc2)CN(C(=O)Nc2ccccc2)[C@@H](CNC(=O)Nc2ccccc2)CC2CCCCC2)cc1 [TPI 1396-31],"Activity (relative caspase-3 activity, ratio of Vmax with compound to Vmax of caspase-3 and XIAP controls)",[1]; [5],1.3
(L-Ala)-(D-Trp)-(L-Trp)-(L-ThiAla) (A[dW]W[2Thi]) [TPI 1332-47],reversing XIAP-mediated suppression of caspase 3,[1],Active
(D-Nal)-(D-pClPhe)-(L-pC1Phe)-(Lys-εFmoc) ([d2Nal][dPhe(4-Cl)][Phe(4-Cl)]K(Fmoc)) [TPI 792-9],LC (lowest concentration with a ratio of 2 or higher in the derepression assay),[1],10 µg/mL
CN(C[C@H]1CCCN1CCc1ccc(F)cc1)[C@@H](CNC(=O)Nc1ccccc1)CC1CCCCC1 [TPI 1577-7],Activity,[1],71 µM
COc1ccc(CCN2CCC[C@H]2CN(C(=O)Nc2ccccc2)[C@H](C)CNC(=O)Nc2ccccc2)cc1 [TPI 1572-16],Activity,[1],149 µM
COc1ccc(CCN2CCC[C@@H]2CN(C)[C@@H](CNC(=O)Nc2cc(Br)cc(Br)c2)CC2CCCCC2)cc1 [TPI 1567-14],Activity,[1],81 µM
same,ability to induce apoptosis in Jurkat cells,[2],capable of inducing apoptosis
(L-ThiAla)-(Lys-εFmoc)-(L-pClPhe)-(pF-D-F) ([2Thi]K(Fmoc)[Phe(4-Cl)][dPhe(4-F)]) [TPI 792-22],LC (lowest concentration with a ratio of 2 or higher in the derepression assay),[1],2 µg/mL
(D-Nal)-(L-Nal)-(D-Lys-εFmoc)-(Lys-εFmoc) ([d2Nal][2Nal][dK](Fmoc)K(Fmoc)) [TPI 792-17],LC (lowest concentration with a ratio of 2 or higher in the derepression assay),[1],2 µg/mL
O=C(NC[C@@H](CC1CCCCC1)N(C[C@@H]1CCCN1)C(=O)Nc1ccccc1)Nc1ccccc1 [TPI 1572-10],Activity,[1],>210 µM
CN(C[C@@H]1CCCN1CCC12CC3CC(CC(C3)C1)C2)[C@H](CCCCNC(=O)Nc1ccccc1)CNC(=O)Nc1ccccc1 [TPI 1567-18],Activity,[1],61 µM
CCN1CCC[C@H]1CN(C(=O)Nc1ccccc1)[C@@H](CNC(=O)Nc1ccccc1)CC1CCCCC1 [TPI 1572-11],Activity,[1],89 µM
